Data published in article PMC12693701, “Glucosinolate-Derived Metabolites from Barbarea vulgaris (Brassicaceae): Evaluation of Antimicrobial, Antioxidant, and Anti-Inflammatory Potentials” (Molecules, 2025).

Experiments:
[1] = tested on: tested fungal strains; assay: Microdilution MIC, summary over tested fungal strains; assay type: cell-based; conditions: tested concentrations 5 to 0.039 mg/mL
Method: The antimicrobial activity was evaluated against 15 microorganisms. This included 11 bacterial strains: four standard strains (Staphylococcus aureus ATCC 25923, Bacillus subtilis ATCC 6633, Bacillus pumilus NCTC 8241, and Escherichia coli ATCC 25922) and six clinical or environmental isolates (Staphylococcus aureus, Escherichia coli, Bacillus cereus, Proteus mirabilis, Salmonella enterica, and Klebsiella pneumoniae). One probiotic strain, Bifidobacterium animalis subsp. lactis was tested. In addition, four fungal strains, Candida albicans ATCC 10231, Trichoderma viride ATCC 13233, Aspergillus flavus ATCC 9170, and Fusarium solani ATCC 11712 were tested. The bacterial strains were kept in glycerol stock at −80 °C and the fungal strains in paraffin oil stock at 4 °C. […]
Antimicrobial activity was evaluated by determining the minimum inhibitory concentration (MIC) and minimum microbicidal concentration (MMC) using the microdilution plate method with resazurin as an indicator [28]. […]
Each test also included growth control and sterility control. […] For molds, MIC values of the tested compound were determined as the lowest concentration that inhibited visible mycelia growth. MMC was determined by inoculation of the nutrient agar medium by plating […] of samples from wells, where no indicator color change was recorded. […]

[2] = molecular target: T1, COX-2 (Homo sapiens, UniProt P35354); assay: COX-2 Inhibitor Screening Kit (Fluorometric); assay type: biochemical; conditions: for inhibition at 10 µM / inhibition at 100 µM: mean ± SE, read-out: Percentage of COX-2 Inhibition
T1 construct: purchased Abcam limited, Cambridge, UK
T1 sequence (P35354 18-604): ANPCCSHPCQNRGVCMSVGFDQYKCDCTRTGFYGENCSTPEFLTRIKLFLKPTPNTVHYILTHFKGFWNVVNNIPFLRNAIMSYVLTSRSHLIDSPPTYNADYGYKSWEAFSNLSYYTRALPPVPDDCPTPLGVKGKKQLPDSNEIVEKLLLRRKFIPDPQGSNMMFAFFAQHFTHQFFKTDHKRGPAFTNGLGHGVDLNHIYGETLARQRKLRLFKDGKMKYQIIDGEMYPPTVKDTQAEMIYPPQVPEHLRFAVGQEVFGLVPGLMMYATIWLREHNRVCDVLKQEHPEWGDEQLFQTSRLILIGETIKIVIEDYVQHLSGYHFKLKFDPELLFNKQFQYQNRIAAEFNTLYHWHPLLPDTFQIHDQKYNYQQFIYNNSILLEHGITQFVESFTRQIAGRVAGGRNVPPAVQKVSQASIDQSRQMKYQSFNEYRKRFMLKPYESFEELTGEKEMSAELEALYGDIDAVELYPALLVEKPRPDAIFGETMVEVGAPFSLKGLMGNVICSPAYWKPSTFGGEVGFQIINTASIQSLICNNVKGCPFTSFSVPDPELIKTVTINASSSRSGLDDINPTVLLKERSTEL
Method: The COX-2 Inhibitor Screening Kit (Fluorometric) (Abcam limited, Cambridge, UK) is a sensitive assay for screening COX-2 inhibitors by fluorometrically detecting Prostaglandin G2, an intermediate formed by COX enzymatic activity The COX-2 inhibitory activity was evaluated following the manufacturer’s instructions. Tested compounds were prepared as 5 mM DMSO stock solutions, diluted 5-fold with assay buffer, and 10 µL was used per well. Controls included celecoxib (inhibitor control), DMSO (solvent control) and enzyme control. A reaction mix containing COX-2 enzyme, probe, cofactor, and assay buffer was added (80 µL), followed by 10 µL arachidonic acid/NaOH to start the reaction. Fluorescence (Ex/Em = 535/587 nm) was monitored kinetically at 25 °C. All measurements were performed in triplicate.

Compound | antifungal activity (in words) [1] | IC50 [2] [µM] | inhibition at 10 µM [2] [%] | inhibition at 100 µM [2] [%]
O=C1NCC(c2ccccc2)S1 (stereo not shown) [Compound 6, 5-phenyl-1,3-thiazolidin-2-one] | all fungal strains were resistant | – | – | –
S=C1NC[C@H](c2ccccc2)O1 [Compound 5, (S)-5-phenyl-1,3-oxazolidine-2-thione] | – | > 100 | 8.11 ± 1 | 21.2 ± 1.3
S=C1NCC(c2ccccc2)O1 (racemic) [Compound 4, rac-5-Phenyl-1,3-oxazolidine-2-thione] | – | > 100 | 4.5 ± 1.6 | 14.2 ± 1
